Laboratory results published in publication PMC5218480 (PLoS ONE, 2017).

System: MV-4-11 cells
Experiment: Gene expression microarray analysis (Affymetrix PrimeView) and GSEA
Format: cell-based, human
Set-up: RFU PODN (11730768_x_at) / Fold change /veh PODN (11730768_x_at) / RFU LINC00158 (11744669_a_at) / Fold change /veh LINC00158 (11744669_a_at) / RFU DUSP10 (11751237_a_at) / Fold change /veh DUSP10 (11751237_a_at) / RFU ID3 (11757404_x_at) / Fold change /veh ID3 (11757404_x_at) / RFU PLEKHG5 (11737974_s_at) / Fold change /veh PLEKHG5 (11737974_s_at) / RFU LRRC4B (11730491_at) / Fold change /veh LRRC4B (11730491_at) / RFU GIMAP4 (11747438_a_at) / Fold change /veh GIMAP4 (11747438_a_at) / RFU KRT8 (11758183_x_at) / Fold change /veh KRT8 (11758183_x_at) / RFU CNN1 (11734310_a_at) / Fold change /veh CNN1 (11734310_a_at) / RFU VPS37D (11726825_at) / Fold change /veh VPS37D (11726825_at) / RFU C10orf10 (11716522_x_at) / Fold change /veh C10orf10 (11716522_x_at) / RFU KIR2DL2 /// KIR2DL4 /// KIR2DL5A /// KIR2DL5B /// KIR2DS1 /// KIR2DS2 /// KIR2DS3 /// KIR2DS4 /// KIR3DL3 /// KIR3DL3 /// KIR3DS1 (11738374_at) / Fold change /veh KIR2DL2 /// KIR2DL4 /// KIR2DL5A /// KIR2DL5B /// KIR2DS1 /// KIR2DS2 /// KIR2DS3 /// KIR2DS4 /// KIR3DL3 /// KIR3DL3 /// KIR3DS1 (11738374_at) / RFU C1QL1 (11718748_at) / Fold change /veh C1QL1 (11718748_at) / RFU TMPRSS4 (11747572_a_at) / Fold change /veh TMPRSS4 (11747572_a_at) / RFU HAMP (11756126_x_at) / Fold change /veh HAMP (11756126_x_at) / RFU RNFT2 (11725882_a_at) / Fold change /veh RNFT2 (11725882_a_at) / RFU NR4A2 (11747474_a_at) / Fold change /veh NR4A2 (11747474_a_at) / RFU ABCC12 (11746883_a_at) / Fold change /veh ABCC12 (11746883_a_at) / RFU TMEM136 (11760407_x_at) / Fold change /veh TMEM136 (11760407_x_at) / RFU CLDN22 /// WWC2 (11732394_at) / Fold change /veh CLDN22 /// WWC2 (11732394_at) / RFU HLA-DPB1 (11760878_x_at) / Fold change /veh HLA-DPB1 (11760878_x_at) / RFU SPINT1 (11716480_a_at) / Fold change /veh SPINT1 (11716480_a_at) / RFU GAP43 (11754022_s_at) / Fold change /veh GAP43 (11754022_s_at) / RFU A4GNT (11735810_at) / Fold change /veh A4GNT (11735810_at) / RFU PRB3 (11715151_x_at) / Fold change /veh PRB3 (11715151_x_at) / RFU TUBB4B (11761932_at) / Fold change /veh TUBB4B (11761932_at) / RFU CAPN14 (11732068_a_at) / Fold change /veh CAPN14 (11732068_a_at) / RFU TMCC2 (11721928_a_at) / Fold change /veh TMCC2 (11721928_a_at) / RFU IRGQ (11745062_a_at) / Fold change /veh IRGQ (11745062_a_at) / RFU FAM174B (11720279_a_at) / Fold change /veh FAM174B (11720279_a_at) / RFU TMPRSS4 (11748680_a_at) / Fold change /veh TMPRSS4 (11748680_a_at) / RFU FAM212B (11763350_a_at) / Fold change /veh FAM212B (11763350_a_at) / RFU PLEKHG5 (11743358_a_at) / Fold change /veh PLEKHG5 (11743358_a_at) / RFU ZSCAN30 (11745921_a_at) / Fold change /veh ZSCAN30 (11745921_a_at) / RFU CMKLR1 (11741424_a_at) / Fold change /veh CMKLR1 (11741424_a_at) / RFU LOC101060620 /// MAPK8IP1 (11723275_at) / Fold change /veh LOC101060620 /// MAPK8IP1 (11723275_at) / RFU SPTSSB (11747773_x_at) / Fold change /veh SPTSSB (11747773_x_at) / RFU PRSS12 (11739890_at) / Fold change /veh PRSS12 (11739890_at) / RFU BIN1 (11741810_x_at) / Fold change /veh BIN1 (11741810_x_at) / RFU WNT11 (11732464_a_at) / Fold change /veh WNT11 (11732464_a_at) / RFU C10orf10 (11716521_a_at) / Fold change /veh C10orf10 (11716521_a_at) / RFU C5orf56 (11738089_at) / Fold change /veh C5orf56 (11738089_at) / RFU CYB561 (11721691_x_at) / Fold change /veh CYB561 (11721691_x_at) / RFU ANKRD19P (11752326_a_at) / Fold change /veh ANKRD19P (11752326_a_at) / RFU OR2T12 /// OR2T33 /// OR2T8 (11738714_s_at) / Fold change /veh OR2T12 /// OR2T33 /// OR2T8 (11738714_s_at) / RFU VCAN (11748164_a_at) / Fold change /veh VCAN (11748164_a_at) / RFU JSRP1 (11732532_at) / Fold change /veh JSRP1 (11732532_at) / RFU KRTAP10-11 (11738290_x_at) / Fold change /veh KRTAP10-11 (11738290_x_at) / RFU MYO3A (11730013_a_at) / Fold change /veh MYO3A (11730013_a_at) / RFU EBF3 (11725865_a_at) / Fold change /veh EBF3 (11725865_a_at) / RFU CAMK2N1 (11719241_x_at) / Fold change /veh CAMK2N1 (11719241_x_at) / RFU C5orf56 (11738088_a_at) / Fold change /veh C5orf56 (11738088_a_at) / RFU OLFML3 (11715873_a_at) / Fold change /veh OLFML3 (11715873_a_at) / RFU LOC100653217 /// NTM (11731650_a_at) / Fold change /veh LOC100653217 /// NTM (11731650_a_at) / RFU MAPK11 (11762145_a_at) / Fold change /veh MAPK11 (11762145_a_at) / RFU FIZ1 (11724087_x_at) / Fold change /veh FIZ1 (11724087_x_at) / RFU OASL (11726364_x_at) / Fold change /veh OASL (11726364_x_at) / RFU SOX15 (11748057_x_at) / Fold change /veh SOX15 (11748057_x_at) / RFU CD79A (11719716_a_at) / Fold change /veh CD79A (11719716_a_at) / RFU HIST1H1D (11736915_at) / Fold change /veh HIST1H1D (11736915_at) / RFU CASKIN2 (11723855_a_at) / Fold change /veh CASKIN2 (11723855_a_at) / RFU LOC730098 (11760151_x_at) / Fold change /veh LOC730098 (11760151_x_at) / RFU OR4N2 (11742367_at) / Fold change /veh OR4N2 (11742367_at) / RFU PRRT2 (11749266_a_at) / Fold change /veh PRRT2 (11749266_a_at) / RFU SNX32 (11753110_a_at) / Fold change /veh SNX32 (11753110_a_at) / RFU CDHR5 (11726645_a_at) / Fold change /veh CDHR5 (11726645_a_at) / RFU RCAN1 (11760418_a_at) / Fold change /veh RCAN1 (11760418_a_at) / RFU FAM167A (11723789_a_at) / Fold change /veh FAM167A (11723789_a_at) / RFU FAM26E (11764081_at) / Fold change /veh FAM26E (11764081_at) / RFU ISYNA1 (11749810_s_at) / Fold change /veh ISYNA1 (11749810_s_at) / RFU ACY1 (11761880_at) / Fold change /veh ACY1 (11761880_at) / RFU 11764098_at / Fold change /veh 11764098_at / RFU SAMD14 (11745864_x_at) / Fold change /veh SAMD14 (11745864_x_at) / RFU NPB (11741838_a_at) / Fold change /veh NPB (11741838_a_at) / RFU TMPRSS6 (11731388_a_at) / Fold change /veh TMPRSS6 (11731388_a_at) / RFU KRTAP10-2 (11738614_at) / Fold change /veh KRTAP10-2 (11738614_at) / RFU ARHGAP8 /// PRR5-ARHGAP8 (11727945_x_at) / Fold change /veh ARHGAP8 /// PRR5-ARHGAP8 (11727945_x_at) / RFU KRTAP5-7 /// NADSYN1 (11734609_at) / Fold change /veh KRTAP5-7 /// NADSYN1 (11734609_at) / RFU RASL12 (11751679_a_at) / Fold change /veh RASL12 (11751679_a_at) / RFU CDKN2B (11736163_a_at) / Fold change /veh CDKN2B (11736163_a_at) / RFU PRF1 (11729649_at) / Fold change /veh PRF1 (11729649_at) / RFU, ZNF638 /// ZNF638-IT1 / Fold change vs veh, ZNF638 /// ZNF638-IT1 / RFU, PANK3 / Fold change vs veh, PANK3 / RFU, SH3YL1 / Fold change vs veh, SH3YL1 / RFU, ZEB2 / Fold change vs veh, ZEB2 / RFU, NRIP1 / Fold change vs veh, NRIP1 / RFU, PTTG1IP / Fold change vs veh, PTTG1IP / RFU, CAPN2 / Fold change vs veh, CAPN2 / RFU, MED14 / Fold change vs veh, MED14 / RFU, SNORA58 / Fold change vs veh, SNORA58 / RFU, C1orf63 / Fold change vs veh, C1orf63 / RFU, LRRFIP1 / Fold change vs veh, LRRFIP1 / RFU, NDUFAF7 / Fold change vs veh, NDUFAF7 / RFU, SLC12A2 / Fold change vs veh, SLC12A2 / RFU, IBTK / Fold change vs veh, IBTK / RFU, ESF1 / Fold change vs veh, ESF1 / Fold change vs veh, TMEM50B / RFU, TAOK1 / Fold change vs veh, TAOK1 / RFU, ACBD3 / Fold change vs veh, ACBD3 / RFU, TMA16 / Fold change vs veh, TMA16 / RFU, RWDD3 / Fold change vs veh, RWDD3 / RFU, BCAT1 / Fold change vs veh, BCAT1 / RFU, EDEM3 / Fold change vs veh, EDEM3 / RFU, TMEM33 / Fold change vs veh, TMEM33 / RFU, WDR75 / Fold change vs veh, WDR75 / RFU, AHCTF1 / Fold change vs veh, AHCTF1 / RFU, TFRC / Fold change vs veh, TFRC / RFU, ZDHHC17 / Fold change vs veh, ZDHHC17 / RFU, NOM1 / Fold change vs veh, NOM1 / RFU, ARL8B / Fold change vs veh, ARL8B / RFU, ZBTB11 / Fold change vs veh, ZBTB11 / RFU, TAMM41 / Fold change vs veh, TAMM41 / RFU, KIAA1704 /// LOC100996395 / Fold change vs veh, KIAA1704 /// LOC100996395 / RFU, ING1 / Fold change vs veh, ING1 / RFU, TRMT61B / Fold change vs veh, TRMT61B / RFU, FUBP3 / Fold change vs veh, FUBP3 / RFU, TP53 / Fold change vs veh, TP53 / RFU, TNKS2 / Fold change vs veh, TNKS2 / RFU, ZFP14 / Fold change vs veh, ZFP14 / RFU, ACTR2 / Fold change vs veh, ACTR2 / RFU, PPP3R1 / Fold change vs veh, PPP3R1 / RFU, PIK3R1 / Fold change vs veh, PIK3R1 / RFU, HNRNPA1 / Fold change vs veh, HNRNPA1 / RFU, RNF170 / Fold change vs veh, RNF170 / RFU, ZNF28 / Fold change vs veh, ZNF28 / RFU, RNGTT / Fold change vs veh, RNGTT / RFU, OGT / Fold change vs veh, OGT / RFU, BRD1 / Fold change vs veh, BRD1 / RFU, MARS / Fold change vs veh, MARS / RFU, ZNF655 / Fold change vs veh, ZNF655 / RFU, FAHD1 / Fold change vs veh, FAHD1 / RFU, BDP1 / Fold change vs veh, BDP1 / RFU, LRRCC1 / Fold change vs veh, LRRCC1 / RFU, ARID1A / Fold change vs veh, ARID1A / RFU, ZNF146 / Fold change vs veh, ZNF146 / RFU, ZNF330 / Fold change vs veh, ZNF330 / RFU, GPN3 / Fold change vs veh, GPN3 / RFU, C9orf123 / Fold change vs veh, C9orf123 / RFU, N4BP2L2 / Fold change vs veh, N4BP2L2 / RFU, ARFIP1 / Fold change vs veh, ARFIP1 / RFU, FAM179B / Fold change vs veh, FAM179B / RFU, BCL10 / Fold change vs veh, BCL10 / RFU, UHRF1BP1L / Fold change vs veh, UHRF1BP1L / RFU, BET1 / Fold change vs veh, BET1 / RFU, CNOT2 / Fold change vs veh, CNOT2 / RFU, ZNF268 / Fold change vs veh, ZNF268 / Fold change vs veh, ZNF507 / RFU, DGCR2 / Fold change vs veh, DGCR2 / RFU, WDSUB1 / Fold change vs veh, WDSUB1 / Fold change vs veh, HSP90B1 /// MIR3652 / RFU, ADSS / Fold change vs veh, ADSS / RFU, GK / Fold change vs veh, GK / RFU, ZNF148 / Fold change vs veh, ZNF148 / RFU, TAF9 / Fold change vs veh, TAF9 / RFU, SLC1A5 / Fold change vs veh, SLC1A5 / RFU, SLMO2 / Fold change vs veh, SLMO2 / RFU, ABCC4 / Fold change vs veh, ABCC4 / RFU, LOC101060439 /// RAP1B / Fold change vs veh, LOC101060439 /// RAP1B / RFU, RFX7 / Fold change vs veh, RFX7 / RFU, GTPBP10 / Fold change vs veh, GTPBP10 / RFU, CNEP1R1 / Fold change vs veh, CNEP1R1 / RFU, BIVM-ERCC5 /// ERCC5 / Fold change vs veh, BIVM-ERCC5 /// ERCC5 / RFU, ILF3 / Fold change vs veh, ILF3 / RFU 11762660_at / Fold change /veh 11762660_at / RFU VCAN (11757783_s_at) / Fold change /veh VCAN (11757783_s_at) / RFU DDX43 (11728927_at) / Fold change /veh DDX43 (11728927_at) / RFU KRT8 (11758188_x_at) / Fold change /veh KRT8 (11758188_x_at) / RFU NKD1 (11759106_at) / Fold change /veh NKD1 (11759106_at) / RFU SRD5A1 (11742802_a_at) / Fold change /veh SRD5A1 (11742802_a_at) / RFU TPSAB1 /// TPSB2 (11721975_s_at) / Fold change /veh TPSAB1 /// TPSB2 (11721975_s_at) / RFU GSTM3 (11746129_a_at) / Fold change /veh GSTM3 (11746129_a_at) / RFU IL23R (11737362_x_at) / Fold change /veh IL23R (11737362_x_at) / RFU TMEM51 (11727254_a_at) / Fold change /veh TMEM51 (11727254_a_at) / RFU PIWIL2 (11732686_x_at) / Fold change /veh PIWIL2 (11732686_x_at) / RFU ORM1 (11744905_x_at) / Fold change /veh ORM1 (11744905_x_at) / RFU CCDC152 (11743942_at) / Fold change /veh CCDC152 (11743942_at) / RFU ECM1 (11717891_a_at) / Fold change /veh ECM1 (11717891_a_at) / RFU IL23R (11748794_a_at) / Fold change /veh IL23R (11748794_a_at) / RFU TNFAIP8L3 (11732012_x_at) / Fold change /veh TNFAIP8L3 (11732012_x_at) / RFU MBOAT4 (11741988_at) / Fold change /veh MBOAT4 (11741988_at) / RFU 11764193_at / Fold change /veh 11764193_at / RFU TMEM53 (11763286_at) / Fold change /veh TMEM53 (11763286_at) / RFU MAGEB2 (11727129_at) / Fold change /veh MAGEB2 (11727129_at) / RFU TMEM200A (11744735_a_at) / Fold change /veh TMEM200A (11744735_a_at) / RFU CCDC152 (11751479_a_at) / Fold change /veh CCDC152 (11751479_a_at) / RFU FAM211A (11726209_a_at) / Fold change /veh FAM211A (11726209_a_at) / RFU RGS16 (11746705_a_at) / Fold change /veh RGS16 (11746705_a_at) / RFU VCAN (11755009_s_at) / Fold change /veh VCAN (11755009_s_at) / RFU RHOB (11743442_s_at) / Fold change /veh RHOB (11743442_s_at) / RFU RGS16 (11720943_a_at) / Fold change /veh RGS16 (11720943_a_at) / RFU RGS16 (11720944_at) / Fold change /veh RGS16 (11720944_at) / RFU, VPS4B / Fold change vs veh, VPS4B / RFU, CREB1 / Fold change vs veh, CREB1 / RFU, DNAJC13 / Fold change vs veh, DNAJC13 / RFU, GNAQ / Fold change vs veh, GNAQ / RFU, CDK5R1 / Fold change vs veh, CDK5R1 / RFU, ZRANB3 / Fold change vs veh, ZRANB3 / RFU, CUL4A / Fold change vs veh, CUL4A / RFU, CCNY / Fold change vs veh, CCNY / RFU, UFL1 / Fold change vs veh, UFL1 / RFU, COG3 / Fold change vs veh, COG3 / RFU, DIAPH2 / Fold change vs veh, DIAPH2 / RFU, SKA2 / Fold change vs veh, SKA2 / RFU, AFF3 / Fold change vs veh, AFF3 / RFU, LMF1 / Fold change vs veh, LMF1 / RFU, IPO11 / Fold change vs veh, IPO11 / RFU, DFFB / Fold change vs veh, DFFB / RFU, FOXP1 / Fold change vs veh, FOXP1 / RFU, CARD8 / Fold change vs veh, CARD8 / RFU, STRN3 / Fold change vs veh, STRN3 / RFU, ADK / Fold change vs veh, ADK / RFU, RASSF2 / Fold change vs veh, RASSF2 / RFU, WIPF1 / Fold change vs veh, WIPF1 / RFU, LARP1B / Fold change vs veh, LARP1B / RFU, RASA1 / Fold change vs veh, RASA1 / RFU, RB1 / Fold change vs veh, RB1 / RFU, PPFIA1 / Fold change vs veh, PPFIA1 / RFU, MAT2A / Fold change vs veh, MAT2A / RFU, CCT5 / Fold change vs veh, CCT5 / RFU, WDR92 / Fold change vs veh, WDR92 / RFU, CUX1 / Fold change vs veh, CUX1 / RFU, TTC7A / Fold change vs veh, TTC7A / RFU, TMEM135 / Fold change vs veh, TMEM135 / RFU, DEPTOR / Fold change vs veh, DEPTOR / RFU, CPM / Fold change vs veh, CPM / RFU, DNAJB6 / Fold change vs veh, DNAJB6 / RFU, CACNA2D3 / Fold change vs veh, CACNA2D3 / RFU, DTX4 / Fold change vs veh, DTX4 / RFU, TFCP2 / Fold change vs veh, TFCP2 / RFU, GMCL1 /// GMCL1P1 / Fold change vs veh, GMCL1 /// GMCL1P1 / RFU, AEBP2 / Fold change vs veh, AEBP2 / RFU, SNHG1 /// SNORD22 /// SNORD25 /// SNORD26 /// SNORD27 /// SNORD28 /// SNORD29 /// SNORD31 / Fold change vs veh, SNHG1 /// SNORD22 /// SNORD25 /// SNORD26 /// SNORD27 /// SNORD28 /// SNORD29 /// SNORD31 / Fold change (Aza/veh), C12orf56 (ProbeSet 11735607_a_at) / Fold change (ACY-1035/veh), C12orf56 (ProbeSet 11735607_a_at) / Fold change (Aza/veh), FGFR1OP (ProbeSet 11751329_s_at) / Fold change (ACY-1035/veh), FGFR1OP (ProbeSet 11751329_s_at) / Fold change (Aza/veh), VPS36 (ProbeSet 11739960_a_at) / Fold change (ACY-1035/veh), VPS36 (ProbeSet 11739960_a_at) / RFU SYPL1 (11715823_x_at) / Fold change /veh SYPL1 (11715823_x_at) / RFU IGFBP7 (11715501_s_at) / Fold change /veh IGFBP7 (11715501_s_at) / RFU REEP3 (11722064_at) / Fold change /veh REEP3 (11722064_at) / RFU IGLL1 (11728026_x_at) / Fold change /veh IGLL1 (11728026_x_at): dose or concentration left out as unconfirmed
Conditions: MV-4-11 cells, 48 hours

Nc1ccc(-c2cccs2)cc1NC(=O)c1ccc2c(c1)cc(C1CC1)n2CCN1CCOCC1 [ACY-1035]
Fold change /veh PLEKHG5 (11743358_a_at): 1.02
